Biological target: T1, GGCT (Homo sapiens, UniProt O75223)
T1 sequence (O75223 1-188): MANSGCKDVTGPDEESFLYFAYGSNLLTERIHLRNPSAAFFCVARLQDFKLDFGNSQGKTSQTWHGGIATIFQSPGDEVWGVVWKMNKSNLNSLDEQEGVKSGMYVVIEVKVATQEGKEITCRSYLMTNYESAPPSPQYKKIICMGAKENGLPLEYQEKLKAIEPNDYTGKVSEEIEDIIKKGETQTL
Assay: thin layer chromatography, ninhydrin
Type: biochemical
Conditions: glycine release

N[C@@H](CCC(=O)NCC(=O)O)C(=O)O [γ-glutamyl-glycine]
thin layer chromatography, ninhydrin: Both GGCT and Botch release glycine by cleavage of γ-glutamyl-glycine

— paper PMC4031649 (Cell reports, 2014)
